Measured values taken from BindingDB's records for doi:10.2174/1568007033482805 (University of Sydney, 2003).
pKi: −log10 of the molar value.

Biological target: T1, Gamma-aminobutyric acid receptor subunit alpha-3 (Homo sapiens, UniProt P34903)
T1 sequence (P34903 whole entry): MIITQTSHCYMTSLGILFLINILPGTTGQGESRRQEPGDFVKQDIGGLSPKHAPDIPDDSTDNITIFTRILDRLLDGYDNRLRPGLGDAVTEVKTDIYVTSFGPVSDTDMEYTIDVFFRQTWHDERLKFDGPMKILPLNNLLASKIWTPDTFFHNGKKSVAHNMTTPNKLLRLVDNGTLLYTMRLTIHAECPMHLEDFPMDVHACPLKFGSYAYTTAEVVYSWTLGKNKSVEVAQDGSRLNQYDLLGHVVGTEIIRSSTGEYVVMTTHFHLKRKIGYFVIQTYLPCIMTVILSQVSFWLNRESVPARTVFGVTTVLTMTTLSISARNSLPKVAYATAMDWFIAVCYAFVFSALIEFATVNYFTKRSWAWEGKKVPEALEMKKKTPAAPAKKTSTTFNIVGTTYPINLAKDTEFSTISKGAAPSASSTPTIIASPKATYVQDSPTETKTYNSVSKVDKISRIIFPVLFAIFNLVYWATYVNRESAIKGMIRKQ

For `O=c1o[nH]c2c1CCNC2` [NSC_130546], the pKi was 5.10.
In the case of `O=c1[nH][nH]c2c1CCNC2` [THIP, Aza-], the pKi was under 5.00.
